From patent US4704400A, “Medicarpin derivatives and analogs” (Merck & Co., Inc., priority 1986, dated 1987)

Experiments:
prostaglandin = conditions: isolated from Dalbergia Odorifera T. Chen.; cited from earlier work
[1] = tested on: leukotriene C4 production in CXBG cells; assay: Inhibition of CXBG leukotriene production (leukotriene C4 by enzyme immunoassay, A23187-stimulated cells); assay type: cell-based, mice; conditions: A23187 stimulation 10 minutes at 37°, inhibitor preincubated 5 minutes
Method: (§1) Representative compounds of Formula I have been tested using the following assay to determine their mammalian leukotriene biosynthesis inhibiting activity and other relevant activities:
(§2) CXBG cells grown intraperitoneally in CB4 B6 /F1 /J mice were washed 5 times in Dulbeccos phosphate buffered saline without calcium or magnesium, suspended in medium 199 (Gibco) at 2×10^6 cells/ml, and incubated 15 minutes at 37°. Inhibitor solutions in methanol were incubated with the cells (10 μl/600 μl cells), for 5 minutes at 37°, and the cells were stimulated with 60 μl A23187 (50 μg/ml) for 10 minutes at 37°. Aliquots were removed for measurement of leukotriene C4 or thromboxane B2 by enzyme immunoassay as previously reported (D. K. Miller, et al., J. Immunological Methods, 81, 169-185, 1985). The percentage inhibition was calculated by the following: [formula]
(§3) IC50 s were determined graphically.

[2] = tested on: thromboxane B2 production in CXBG cells; assay: Inhibition of CXBG prostoglandin production (thromboxane B2 by enzyme immunoassay, A23187-stimulated cells); assay type: cell-based, mice; conditions: A23187 stimulation 10 minutes at 37°, inhibitor preincubated 5 minutes
Method: as §1, §2, §3

| Compound | prostaglandin inhibition (prostaglandin) | IC50, LTC4 [1] [µg/mL] | IC50, TXB2 [2] [µg/mL] |
| --- | --- | --- | --- |
| COc1ccc2c(c1)O[C@H]1c3ccc(O)cc3OC[C@@H]21 (relative stereo) [medicarpin] | negative results | – | – |
| (iso)medicarpin | – | 0.1 | > 5 |
